Reference: US20080026996A1, “Selective Vpac2 Receptor Reptide Agonists” (ELI LILLY AND COMPANY, priority 2004, published 2008)
Where a SMILES comes first, the peptide text is derived from it. Where no end group is shown, it is not given here. [ ]: non-standard residue; d: D form. The star is where a group is joined. Hexanoyl = CCCCCC(=O)*; Aib = CC(C)(N)C(=O)O

Experiments:
[1] = Rat serum stability studies (remaining active peptide by DiscoveRx cAMP on CHO-VPAC2 cells); format: in vitro ADME
Description: Store the aliquot with aprotinin at 4° C. Store the aliquot without aprotinin at 37° C. […] […] Incubate in room temperature for 30 minutes. Remove the supernatant. […] Incubate on the shaker (300 rpm) for 1 hour. Proceed as normal with the DiscoveRx kit. Include cAMP standards in column 12. Determine EC50 values from the cAMP assay data.

[2] = biological target: T1, human VPAC2 (Homo sapiens, UniProt P41587); experiment: Alpha screen cAMP in vitro potency, human VPAC2 receptor; format: cell-based; settings: cAMP generation; single result from two analyses performed in a single run; read-out: Human VPAC2 Receptor: Alpha Screen EC50
T1 construct: expressed in transfected cells
T1 sequence (P41587 24-438): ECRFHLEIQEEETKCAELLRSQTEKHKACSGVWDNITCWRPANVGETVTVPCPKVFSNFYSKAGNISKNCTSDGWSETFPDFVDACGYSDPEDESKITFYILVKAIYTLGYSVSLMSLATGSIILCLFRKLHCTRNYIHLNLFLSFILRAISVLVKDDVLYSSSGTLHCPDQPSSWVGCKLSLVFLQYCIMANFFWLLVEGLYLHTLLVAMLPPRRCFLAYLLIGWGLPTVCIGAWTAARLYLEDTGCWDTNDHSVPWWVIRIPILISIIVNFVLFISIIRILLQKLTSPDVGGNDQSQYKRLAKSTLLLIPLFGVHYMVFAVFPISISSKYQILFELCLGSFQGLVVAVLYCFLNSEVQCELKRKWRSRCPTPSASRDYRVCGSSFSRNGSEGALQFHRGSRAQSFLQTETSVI
Description: Alpha screen: Cells are washed in the culture flask once with PBS. Then, the cells are rinsed with enzyme free dissociation buffer. The dissociated cells are removed. The cells are then spun down and washed in stimulation buffer. For each data point, 50,000 cells suspended in stimulation buffer are used. To this buffer, Alpha screen acceptor beads are added along with the stimuli. This mixture is incubated for 60 minutes. Lysis buffer and Alpha screen donor beads are added and are incubated for 60 to 120 minutes. The Alpha screen signal (indicative of intracellular cAMP levels) is read in a suitable instrument (e.g. AlphaQuest from Perkin-Elmer). Steps including Alpha screen donor and acceptor beads are performed in reduced light.

[3] = biological target: T1, human VPAC2; experiment: Filter binding assay, membranes of stable VPAC2 cell line, 125I-labeled VIP tracer (Table 2); settings: read-out: Human VPAC2 Receptor Binding
Procedure, shortened: (§1)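 Scintillation counting of filter-retained radioligand gave the read-out. Compounds competed with the labelled tracer (about 40000 cpm) for 2.5 μg membranes during 1 hour of shaking in HEPES pH 7.4 buffer containing 0.5% BSA.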

[4] = biological target: T2, human VPAC1 (Homo sapiens, UniProt P32241); experiment: Filter binding assay, membranes of cells transiently transfected with human VPAC1, 125I-labeled VIP tracer (Table 2); set-up: expressed in transfected cells; settings: read-out: Human VPAC1 Receptor Binding
T2 sequence (P32241 31-457): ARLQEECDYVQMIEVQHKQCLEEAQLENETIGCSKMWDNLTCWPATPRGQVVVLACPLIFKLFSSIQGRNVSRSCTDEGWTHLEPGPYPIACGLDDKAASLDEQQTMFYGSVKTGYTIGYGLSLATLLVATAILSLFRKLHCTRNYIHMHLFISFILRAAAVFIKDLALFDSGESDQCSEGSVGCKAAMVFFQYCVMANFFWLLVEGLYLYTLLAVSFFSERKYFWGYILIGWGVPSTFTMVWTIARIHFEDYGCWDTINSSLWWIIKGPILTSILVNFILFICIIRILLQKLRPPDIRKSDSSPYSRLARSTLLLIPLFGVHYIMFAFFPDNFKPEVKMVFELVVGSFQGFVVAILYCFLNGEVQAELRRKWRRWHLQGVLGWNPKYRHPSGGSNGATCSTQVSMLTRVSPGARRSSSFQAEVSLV
Procedure, shortened: as §1

[5] = biological target: T3, human PAC1 (Homo sapiens, UniProt P41586); experiment: Filter binding assay, membranes of cells transiently transfected with human PAC1, 125I-labeled PACAP-27 tracer (Table 2); set-up: expressed in transfected cells; settings: read-out: Human PAC1 Receptor Binding
T3 sequence (P41586 21-468): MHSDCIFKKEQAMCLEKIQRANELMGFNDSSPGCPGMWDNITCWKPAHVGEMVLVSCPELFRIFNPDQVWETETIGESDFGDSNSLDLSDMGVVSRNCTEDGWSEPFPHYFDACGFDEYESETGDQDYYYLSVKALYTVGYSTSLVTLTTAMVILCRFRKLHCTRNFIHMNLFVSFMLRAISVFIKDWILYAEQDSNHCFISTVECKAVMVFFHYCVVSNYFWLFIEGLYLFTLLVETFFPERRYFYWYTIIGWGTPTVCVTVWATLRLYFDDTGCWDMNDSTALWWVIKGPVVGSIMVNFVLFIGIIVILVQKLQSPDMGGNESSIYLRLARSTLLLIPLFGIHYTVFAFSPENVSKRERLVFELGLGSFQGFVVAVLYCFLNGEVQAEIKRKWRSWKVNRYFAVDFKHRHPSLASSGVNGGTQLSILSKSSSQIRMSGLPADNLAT
Description: For this assay, the solutions and equipment include:
Presoak solution: 0.5% Polyethyleneamine in Aqua dest.
Buffer for flushing filter plates: 25 mM HEPES pH 7.4
Blocking buffer: 25 mM HEPES pH 7.4; 0.2% protease free BSA
Assay buffer: 25 mM HEPES pH 7.4; 0.5% protease free BSA
Dilution and assay plate: PS-Microplate, U form
Filtration Plate Multiscreen FB Opaque Plate; […] Type B Glasfiber filter
In order to prepare the filter plates, aspirate the presoak solution by vacuum filtration. Flush the plates twice with 200 μL flush buffer. Add 200 μL blocking buffer to the filter plate. The filter plate is then incubated […] for 1 hour at room temperature.
Fill the assay plate with 25 μL assay buffer, 25 μL membranes (2.5 μg) suspended in assay buffer, 25 μL compound (agonist) in assay buffer, and 25 μL tracer (about 40000 cpm) in assay buffer. Incubate the filled plate for 1 hour with shaking.
Conduct the transfer from assay plate to filter plate. Aspirate the blocking buffer by vacuum filtration and wash two times with flush buffer. Transfer 90 μL from the assay plate to the filter plate. Aspirate the 90 μL transferred from assay plate and wash three times with 200 μL flush buffer. Remove the plastic support. Dry for 1 hour at 60° C. Add 30 μL Microscint. Perform the count.

| Molecule | Rat Serum Stability (estimated purity in % after 18 hours) [1] [%] | EC50 [2] [nM] | IC50 [3] [nM] | IC50 [4] [nM] | IC50 [5] [nM] |
| --- | --- | --- | --- | --- | --- |
| Hexanoyl-HSDIVFTDNYTRLRKQVAAKKYLQSIKNKRYGGPSSGAPPPS [Agonist P221] | 0.87 | – | – | – | – |
| Hexanoyl-HSDAVFTDNYTRLRKQVAAKK[Aib]LQSIKNKRYGGPSSGAPPPS [Agonist P228] | <5.00 | – | – | – | – |
| CCCCCC(=O)N[C@@H](Cc1c[nH]cn1)C(=O)N[C@@H](CO)C(=O)N[C@@H](CC(=O)O)C(=O)N[C@@H](C)C(=O)N[C@H](C(=O)N[C@@H](Cc1ccccc1)C(=O)N[C@H](C(=O)N[C@@H](CC(=O)O)C(=O)N[C@@H](CC(N)=O)C(=O)N[C@@H](Cc1ccc(O)cc1)C(=O)N[C@H](C(=O)N[C@@H](CCCNC(=N)N)C(=O)N[C@@H](CC(C)C)C(=O)N[C@@H](CCCNC(=N)N)C(=O)N[C@@H](CCCCN)C(=O)N[C@@H](CCC(N)=O)C(=O)N[C@@H](CCSC)C(=O)N[C@@H](C)C(=O)N[C@@H](C)C(=O)N[C@@H](CCC(N)=O)C(=O)N[C@@H](CCCCN)C(=O)N[C@@H](Cc1ccc(O)cc1)C(=O)N[C@@H](CC(C)C)C(=O)N[C@@H](CC(N)=O)C(=O)N[C@@H](CCC(N)=O)C(=O)N[C@@H](CC(C)C)C(=O)N[C@@H](CCCCN)C(=O)N[C@@H](CCCCN)C(=O)NCC(=O)NCC(=O)N1CCC[C@H]1C(=O)N[C@@H](CO)C(=O)N[C@@H](CO)C(=O)NCC(=O)N[C@@H](C)C(=O)N1CCC[C@H]1C(=O)N1CCC[C@H]1C(=O)N1CCC[C@H]1C(=O)N[C@@H](CO)C(=O)O)[C@@H](C)O)[C@@H](C)O)C(C)C [Agonist P143] (Hexanoyl-HSDAVFTDNYTRLRKQMAAQKYLNQLKKGGPSSGAPPPS-OH; C-terminus assumed) | – | 0.1 | 0.5 | 605 | 1080 |
| Hexanoyl-HSDAVFTDNYTRLRKQVAAKKYLQWIKNKRYGGPSSGAPPPS [Agonist P117] | – | 0.2 | 0.51 | 442 | 243 |
| Hexanoyl-HSDAVFTDNYTRLKAQVAAKKYLQSIKNKRYGGPSSGAPPPS [Agonist P141] | – | 0.72 | 0.64 | 25.9 | 658 |
| Hexanoyl-HSDAVFTDNYTRLRKQVAAKKYLQYIKNKRYGGPSSGAPPPS [Agonist P127] | – | 0.22 | 0.23 | 290 | 209 |
| Hexanoyl-HSDAVFTDNYTRLRRQVAARRYLQSIRNRRYGGPSSGAPPPS [Agonist P98] | – | 0.15 | 0.17 | 69 | 96.3 |
| Hexanoyl-HSDAVFTDNYTRLRKQVAAKKYLQSWKNKRYGGPSSGAPPPS [Agonist P110] | – | 0.13 | 0.1 | 425 | 321 |
| Hexanoyl-HSDAVFTDNYTRLRKQVAAKKYLQTIKNKRYGGPSSGAPPPS [Agonist P115] | – | 0.2 | 0.1 | 267 | 190 |
| Hexanoyl-HSDAVFTDNYTRLRKQVAAKKYLQNIKNKRYGGPSSGAPPPS [Agonist P125] | – | 0.14 | 0.19 | 179 | 300 |
| CCCCCC(=O)N[C@@H](Cc1c[nH]cn1)C(=O)N[C@@H](CO)C(=O)N[C@@H](CC(=O)O)C(=O)N[C@@H](C)C(=O)N[C@H](C(=O)N[C@@H](Cc1ccccc1)C(=O)N[C@H](C(=O)N[C@@H](CC(=O)O)C(=O)N[C@@H](CC(N)=O)C(=O)N[C@@H](Cc1ccc(O)cc1)C(=O)N[C@H](C(=O)N[C@@H](CCCNC(=N)N)C(=O)N[C@@H](CC(C)C)C(=O)N[C@@H](CCCNC(=N)N)C(=O)N[C@@H](CCCCN)C(=O)N[C@@H](CCC(N)=O)C(=O)N[C@H](C(=O)N[C@@H](C)C(=O)N[C@@H](C)C(=O)N[C@@H](CCCCN)C(=O)N[C@@H](CCCCN)C(=O)N[C@@H](Cc1ccc(O)cc1)C(=O)N[C@@H](CC(C)C)C(=O)N[C@@H](CCC(N)=O)C(=O)N[C@@H](CO)C(=O)N[C@H](C(=O)N[C@@H](CCCCN)C(=O)N[C@@H](CCC(N)=O)C(=O)N[C@@H](CCCCN)C(=O)NCC(=O)NCC(=O)N1CCC[C@H]1C(=O)N[C@@H](CO)C(=O)N[C@@H](CO)C(=O)NCC(=O)N[C@@H](C)C(=O)N1CCC[C@H]1C(=O)N1CCC[C@H]1C(=O)N1CCC[C@H]1C(=O)N[C@@H](CO)C(=O)O)[C@@H](C)CC)C(C)C)[C@@H](C)O)[C@@H](C)O)C(C)C [Agonist P270] (Hexanoyl-HSDAVFTDNYTRLRKQVAAKKYLQSIKQKGGPSSGAPPPS-OH; C-terminus assumed) | – | 0.13 | 0.15 | 110 | 436 |
| Hexanoyl-HSDAVFTDNYTRLLAKLALQKYLQSIKNKRYGGPSSGAPPPC [Agonist P164] | – | 0.11 | 2.46 | > 3000 | 9370 |
| Hexanoyl-HSDAVFTDNYTRLRKQVAAKKFLQSIKNKRYGGPSSGAPPPS [Agonist P130] | – | 0.77 | 0.43 | 233 | 444 |
| Hexanoyl-HSDAVFTDNYTRLRKQVAAKKYLQS[Aib]KNKRYGGPSSGAPPPS [Agonist P188] | – | 0.32 | 0.29 | 6.19 | 700 |
| Hexanoyl-HSDAVFTDNYTRLRKQVAAKKYLQSLKNKRYGGPSSGAPPPS [Agonist P107] | – | 0.12 | 0.16 | 122 | 225 |
| Hexanoyl-HSDAVFTDNYTRLRKQVAAKKYLQVIKNKRYGGPSSGAPPPS [Agonist P116] | – | 0.12 | 0.74 | 369 | 145 |
